Experiments:
[1] = test system: ciliary movement in trachea mucous of rabbits; test: Ciliary movement in trachea mucous; parameters: species or system rabbit; key to Ciliary movement: +++: All ciliary active in field of vision:; ++: ⅓~⅔ ciliary active in field of vision:; +: Less than ⅓ ciliary active in field of vision:; −−: All ciliary inactive in field of vision:; conditions: Ach, Dosage (g/L) 0.1
Description: The trachea mucous is exposed and washed by Ringer's solution (37° C.), then observe the sample by anatomical lens.
Add an ink into trachea mucous, the ink will move to one way (towards larynx), measure the velocity by micrometer and stopwatch, then calculate the moving velocity of mucus moving (second/2 mm).

[2] = test system: model animal with emphysema and pulmonary hypertension; test: Experimental emphysema and pulmonary hypertension model; type: in vivo, golden hamster
Description: Preparation of model animal with emphysema and pulmonary hypertension: choose 75 from 90 male golden hamster randomly, 100-150 g each, to make model mouse. The model-building is performed on elected 75 animals under intraperitoneal anesthesia. Then open the mouse and exposure its throat, insert a pipe and inject the medicine fluid (60 U/100 g weight) into the body through the pipe, then shake the animal to let the medicine equality. Animals are wake in several hours, and feed normally. Other 15 golden hamster are acted as normal control group (Group A), the same volume of saline is injected in each trachea of each animal.
After perfusion of the medicine by gavage, animals are killed to measure the following:
Right Systolic Pressure (RSP): animals are cut in the neck to expose the right jugular vein, then insert the pipe into the right jugular vein to right ventricle, the pipe also connects the physiological monitor (RM-6300, Japan) for blood pressure measuring. The right carotic artery is also exposed and cannulated for blood pressure measuring.
Right Ventricle Hypertrophy Index (RVHI): kill the animal by bleeding, open the chest and bring the heart out, then cut the right ventricle down. Wash the heart by saline, absorb the water by filter paper, and then weight the right ventricle, and weight the total weight of the left ventricle and atrioventricular septalium. RVHI=weight of right ventricle/(total weight of left ventricle and atrioventricular septalium)
Pneumonic bronchoalveolar lavage fluid analyse: isobarical lavage machine is infused with Locke's solution, 37° C., the level of bottom is 60-100 cm higher than the T pipe. Kill the animal and open its chest, separate and cut down the trachea, and then bring out the trachea and the lung together, place in the Locke's solution, 37° C. Extrude the air out of the lung, and ligate the trachea with sleeve and connect with the T pipe. Open the T pipe to let Locke's solution flow into the lung, adjust the velocity of flow to about 25 ml/min. Concentrate the lavage 400 g by the centrifugal for 10 minutes, remove the supernatant, then add physiological saline into the deposit to make the cell suspend. Count the number of cells of bronchoalveolar lavage fluid ([…]) by inverted microscope, four times for one sample. Count the number of cells (/ml/g) of bronchoalveolar lavage fluid (BALF). Dye the smear of the suspend with HE, then count the ratio of macrophage in cell types.
Statistic treatment: data is expressed by x±s, and analyzed by one-way ANOVA, and compare with each group by Newman-Keuls method, P<0.05 meants distinct difference.

[3] = test system: isolated bronchitis in contractive state; test: Lung overfall of isolated bronchitis in contractive state, before and after dosing; parameters: species or system guinea pig; conditions: aminophylline group
Description: (§1) The isobarical lavage machine is infused with Locke's solution, 37° C., the level of bottom is 60-100 cm higher than the T pipe. Guinea pigs are narcosis under intraperitoneal anesthesia by 1.5 ml 1% pentobarbital. Take 2 ml blood from cervical artery for detection of inflammatory factors. Kill the animal and open its chest, separate and cut down the trachea, and then bring out the trachea and the lung together, place in the Locke's solution, 37° C. Extrude the air out of the lung, and ligate the trachea with sleeve and connect with the T pipe. Open the T pipe to let Locke's solution flow into the lung, adjust the velocity of flow to about 25 ml/min. Take 5 ml lavage fluid for detection of inflammatory factors. When the velocity of flow is stable, animals are given 0.5% ovalbumin to stimulate the twitching of bronchia. After 30 minutes, observe and record the flux per minute, 6-10 minutes.
After 6-minute stimulating, the lung overfall of isolated bronchitis becomes stable.

IL-2 = IL-2 in blood serum and BALF of asthmatic guinea pig (ELISA); type: in vivo; conditions: aminophylline group
Description: (§2) 11) IL-2, IL-4 assaying box for ELISA: provided by Shenzhen Jing Mei Co., Ltd.
as §1

IL-4 = IL-4 in blood serum and BALF of asthmatic guinea pig (ELISA); type: in vivo; conditions: aminophylline group
Description: as §2, §1

[4] = test system: Staphyloccocus aureus Rosenbach; test: Treatment of infection by Staphyloccocus aureus Rosenbach in vivo
Source text: (§3) 2.10.1 select some bacterial related to acute pharyngitis, such as Staphyloccocus aureus Rosenbach, and α-hemolytic streptococcus, inject above bacterial into animals, such as mouse, by intraperitoneal dosing or subcutaneous injection, which will make certain animal death. Dosed before infecting the bacterial, and dosed after infecting the bacterial, the animals will be observed for eating, drinking, and movement.
(§4) Observe and record the eating, drinking, and movement in 4 days as the normal value. Besides of control group, animals in other groups are injected 0.5 ml Staphyloccocus aureus Rosenbach by intraperitoneal dosing or subcutaneous injection In the next day, animals are feed 5 days by gavage, twice every day. Observe the condition of eating, drinking, and movement, and mean growth rates, and then compare with control group.

[5] = test system: α-hemolytic streptococcus; test: Experimental treatment of infection by α-hemolytic streptococcus in vivo; conditions: Ofloxacin 500 mg/kg
Source text: as §3, §4
The other methods are the same as the section 2.10.1.

[6] = test system: model rat with chronic bronchitis; test: Treatment of pneumonia, histology of trachea and pneumonic tissue; type: in vivo, SD rat; conditions: positive group, dexamethason 1.2 mg/kg (FIG. 5), gavage 10 days
Description: Preparation of model rat with chronic bronchitis: choose 60 SD rats, 250-300 g each, male or female. Divide the rats randomly into six groups, one is normal control group, the other five groups are model groups which are modeling according to section 2.4.
During the dosing, observe the whole condition of animals in each group, and carry out the following procedures in ten days after the last dosing: The rats are narcosis under intraperitoneal anesthesia by 0.4 ml/100 g 10% chloral hydrate, and put on the operating table, open the neck and chest, bring out the trachea and pneumonic tissue, and then observe the condition of the sample. The sample is fixed by 10% formalin solution, and embedded by paraffin, and cut into slices, and dyed by HE. The inflammatory pathological changes are observed by microscope, including the integrality of epidermis, thickness of glands, infiltration of inflammatory cells in tracheal mucous, follicular lymph, and thickness of tracheal wall.

[7] = test system: model mouse with chronic bronchitis; test: Cough of chronic bronchitis (SO2 stimulation); type: in vivo; conditions: Dextromethorphan 15 mg/kg (positive control, also dexamethason 1.2 mg/kg)
Description: Preparation of model mouse with chronic bronchitis: choose 90 white mice, 20-25 g each, male or female Divide the mice randomly into six groups. In normal control group, no S02 stimulation is given, mice are feeding normally. In other groups, the following SO2 stimulation is given: place a utensil with 0.5 g anhydrous sodium sulfite in an 8 L bell cover, and place mice of each group into the bell cover, and add 50% vitriol 5 ml into the utensil, and take out the mice after 2 minutes; Once every day, 21 days.
During the dosing, observe the whole condition of animals in each group, and give the above SO2 stimulation to them in one hour after the last dosing. Record the delitescence of cough of each animal, and record the times of cough of each animal in 3 minutes.

[8] = test system: model mouse with acute bronchitis; test: Cough of acute bronchitis (SO2 stimulation); type: in vivo; conditions: Dextromethorphan 15 mg/kg oral
Description: Preparation of model mouse with acute bronchitis: choose white mice, 20-25 g each, male or female. Pre-select method: place a utensil with 0.5 g anhydrous sodium sulfite in an 1 L beaker, add 50% vitriol 5 ml into the utensil, and place mice of each group into the beaker after 15 seconds, and take out the mice after 30 seconds. The mouse which starts cough in 3 minutes is an eligible mouse. Record the delitescence of cough of each animal, and record the times of cough of each animal. […] During the dosing, observe the whole condition of animals in each group, and give the above SO2 stimulation to them for 30 seconds in one hour after the last dosing. Record the delitescence of cough of each mouse, and record the times of cough of each animal in 3 minutes.

[9] = Ofloxacin 500 mg/kg, gavage twice every day

CC(=O)OCC[N+](C)(C)C.[Cl-] [Ach, Acetylcholine chloride]
Ciliary movement [1]: +++
Moving velocity ([1]; ink on trachea mucous): 5.36 ± 0.64 second/2 mm

Cn1c(=O)c2[nH]cnc2n(C)c1=O [Aminophylline]
MS ([2]; aminophylline positive control group): 96.7 ± 9.6%
RVHI ([2]; aminophylline positive control group, gavage): 28.62 ± 8.81%
BALF ([2]; cells in bronchoalveolar lavage fluid, aminophylline positive control group): 364.8 ± 95.7 /mm^3
pathological changes of emphysema ([2]; comparing with the model group, aminophylline group): non-obviously improvement
lung overfall of isolated bronchitis in contractive state, After dosing [3]: 17.13 ± 3.08
lung overfall of isolated bronchitis in contractive state, Before dosing ([3]; baseline before dosing): 9.45 ± 1.86
lung overfall of isolated bronchitis in contractive state, After dosing ([3]; listed as aminophylline): increases obviously
IL-2 in BALF (IL-2): 0.13 ± 0.08 b pg/ml
IL-2 in serum (IL-2): 1.45 ± 0.86 b pg/ml
amount of IL-2 in blood serum and BALF (IL-2; summary of table 9): decreases obviously
IL-4 in BALF (IL-4): 26.81 ± 7.76 b pg/ml
IL-4 in serum (IL-4): 1.78 ± 1.56 b pg/ml
amount of IL-4 in blood serum and BALF (IL-4; summary of table 9): decreases obviously

CC1COc2c(N3CCN(C)CC3)c(F)cc3c(=O)c(C(=O)O)cn1c23 (centres unmarked) [Ofloxacin]
After infection, dringking, Day 1 [4, 9]: 2.7 mL
After infection, dringking, Day 2 [4, 9]: 3.2 mL
After infection, dringking, Day 3 [4, 9]: 3.0 mL
After infection, dringking, Day 4 [4, 9]: 3.5 mL
After infection, dringking, Day 5 [4, 9]: 4.3 mL
After infection, eating, Day 1 [4, 9]: 1.9 g
After infection, eating, Day 2 [4, 9]: 2.5 g
After infection, eating, Day 3 [4, 9]: 3.2 g
After infection, eating, Day 4 [4, 9]: 3.6 g
After infection, eating, Day 5 [4, 9]: 3.9 g
Survive ([4]; of 15 animals, Ofloxacin group): 15
After infection, dringking, Day 1 [5]: 2.3 mL
After infection, dringking, Day 2 [5]: 3.6 mL
After infection, dringking, Day 3 [5]: 3.8 mL
After infection, dringking, Day 4 [5]: 3.8 mL
After infection, dringking, Day 5 [5]: 4.2 mL
After infection, eating, Day 1 [5]: 2.1 g
After infection, eating, Day 2 [5]: 2.3 g
After infection, eating, Day 3 [5]: 2.9 g
After infection, eating, Day 4 [5]: 3.2 g
After infection, eating, Day 5 [5]: 4.5 g

C[C@@H]1C[C@H]2[C@@H]3CCC4=CC(=O)C=C[C@]4(C)[C@@]3(F)[C@@H](O)C[C@]2(C)[C@@]1(O)C(=O)CO [dexamethason]
inflammatory pathological changes of trachea and pneumonic tissue (microscope) [6]: obviously different from the model control group

COc1ccc2c(c1)[C@]13CCCC[C@@H]1[C@H](C2)N(C)CC3 [Dextromethorphan]
Delitescence ([7]; delitescence of cough): 17.70 ± 4.521
Times of Cough ([7]; in 3 minutes): 77.60 ± 9.88
Delitescence ([8]; delitescence of cough): 30.40 ± 9.91
Times of Cough ([8]; in 3 minutes): 35.20 ± 5.65

— patent publication US20100048457A1, “GLYCOPROTEIN FOR TREATING CHRONIC OBSTRUCTIVE PULMONARY DISEASES” (Guangzhou Konzern Pharmacetuical Co. Ltd, priority 2007, published 2010)
